{"source": "patent US20220273829A1", "about": "“RADIOLABELED SUGARS FOR IMAGING OF FUNGAL INFECTIONS” (THE UNITED STATES OF AMERICA, as represented by the …, priority 2019, published 2022)", "key": {"[1]": {"test_system": "pulmonary aspergillosis (Aspergillus lung infection)", "type": "in vivo, mouse", "conditions": "for PET/CT uptake (SUV) in lungs of infected mice: 60-minute dynamic PET/CT, pulmonary aspergillosis model vs controls and poly (I:C) treated mice", "experimental": "(§1) The inventors identified sugars and other molecules involved in the metabolic pathways of clinically-relevant fungal infections, and generated radiolabeled versions (3H or 14C) that were tested for in vitro uptake in bacteria (gram-negative, gram-positive, Pseudomonas aeruginosa), macrophages (J774 cell line) and m clinically-relevant fungal strains including Aspergillus, Rhizomucor, Cryptococcus and Candida albicans. Organisms and cells were exposed to the radiolabeled compounds and the in vitro uptake was measured (retained radioactivity after incubation and washing of the cultures measured using a beta counter). […] For the biodistribution and autoradiography studies showing specific uptake of the radioactive molecules by fungal-infected animals (i.e., retained radioactivity in the lungs in the infected animals but not in the control animals), the ligand(s) specific for each type of fungi was radiolabeled with 18F or other PET isotopes. Using the radiolabeled ligand(s), live PET imaging is performed on infected mice using a microPET/CT scanner. This is done by injecting the radioactive ligand intravenously through the tail vein and then positioning the animals inside the microPET/CT gantry and obtaining CT scan images as well as PET emission data. The images are reconstructed and analyzed using special software. To confirm specificity for fungal infection, in vivo uptake of the ligand(s) in animal models of sterile inflammation, as well as models of bacterial infection (gram positive and gram negative bacteria) are performed.\nThree main mouse models were developed: (1) Aspergillus lung infection (nasopharyngeal administration of 30 μl suspension of Aspergillus conidia), (2) Aspergillus hematogenous spread (intravenous administration of 100 μl of fungal suspension via the tail vein) and (3) sterile lung inflammation model (induced by nasopharyngeal administration of 50-100 μg of poly (I:C) suspension in 30 μl of sterile PBS; poly(I:C) is a synthetic double stranded RNA which activates Toll-like receptors-3 (TLR3), thereby inducing signaling via multiple inflammatory pathways).\nStandardized uptake values (SUVs) of ^18F-L-rhamnose in infected mice were then measured, and compared to animals with sterile lung inflammation (24 hours following post-pharyngeal poly (I:C) administration) and healthy controls."}, "A. fumigatus": {"test_system": "A. fumigatus", "assay": "In vitro uptake of radiolabeled sugar in fungal cultures (retained radioactivity after incubation and washing)", "type": "cell-based, Aspergillus fumigatus", "experimental": "as §1, with “This is done by injecting the radioactive ligand intravenously through the tail vein and then positioning the animals inside the microPET/CT gantry and obtaining CT scan images as well as PET emission data.” left out, “To confirm specificity for fungal infection, in vivo uptake of the ligand(s) in animal models of sterile inflammation, as well as models of bacterial infection (gram positive and gram negative bacteria) are performed.” left out\n(§2) In vitro studies using ^3H-cellobiose were performed with measurement of retained radioactivity after incubation and washing of the cultures using a beta counter."}, "[2]": {"test_system": "A. fumigatus infected mice", "assay": "Autoradiography of tissue sections from injected infected mice", "type": "in vivo, mouse", "conditions": "lung sections; nasopharyngeal inoculation model; FIG. 1F, FIG. 5A", "experimental": "as §1, with “Using the radiolabeled ligand(s), live PET imaging is performed on infected mice using a microPET/CT scanner. This is done by injecting the radioactive ligand intravenously through the tail vein and then positioning the animals inside the microPET/CT gantry and obtaining CT scan images as well as PET emission data.” left out, “To confirm specificity for fungal infection, in vivo uptake of the ligand(s) in animal models of sterile inflammation, as well as models of bacterial infection (gram positive and gram negative bacteria) are performed.” left out\nex vivo experiments were performed, including biodistribution (injecting the animals with radiolabeled molecules followed by euthanasia, collection of organs and measurement of radioactivity) and autoradiography (sectioning of lung tissues from injected animals to measure residual radioactivity). […]"}, "[3]": {"test_system": "A. fumigatus-infected lungs (nasopharyngeal model)", "assay": "Organ biodistribution after injection of radiolabeled sugar in Aspergillus-infected mice", "type": "in vivo, mouse", "conditions": "infected vs uninfected controls / sterile lung inflammation, FIG. 2, FIG. 4C", "experimental": "as §1, with “Using the radiolabeled ligand(s), live PET imaging is performed on infected mice using a microPET/CT scanner. This is done by injecting the radioactive ligand intravenously through the tail vein and then positioning the animals inside the microPET/CT gantry and obtaining CT scan images as well as PET emission data.” left out, “To confirm specificity for fungal infection, in vivo uptake of the ligand(s) in animal models of sterile inflammation, as well as models of bacterial infection (gram positive and gram negative bacteria) are performed.” left out\nex vivo experiments were performed, including biodistribution (injecting the animals with radiolabeled molecules followed by euthanasia, collection of organs and measurement of radioactivity) and autoradiography (sectioning of lung tissues from injected animals to measure residual radioactivity)."}, "bacteria [4]": {"test_system": "bacteria", "assay": "In vitro uptake of radiolabeled sugar in bacterial cultures", "type": "cell-based, E. coli, S. aureus", "conditions": "FIGS. 1B-1C", "experimental": "as §1, with “To confirm specificity for fungal infection, in vivo uptake of the ligand(s) in animal models of sterile inflammation, as well as models of bacterial infection (gram positive and gram negative bacteria) are performed.” left out"}, "J774 macrophages [5]": {"test_system": "J774 macrophages", "assay": "In vitro uptake of radiolabeled sugar in macrophages / mammalian cells", "type": "cell-based", "conditions": "J774 cell line; FIG. 1D, FIG. 4B", "experimental": "as §1, with “This is done by injecting the radioactive ligand intravenously through the tail vein and then positioning the animals inside the microPET/CT gantry and obtaining CT scan images as well as PET emission data.” left out, “To confirm specificity for fungal infection, in vivo uptake of the ligand(s) in animal models of sterile inflammation, as well as models of bacterial infection (gram positive and gram negative bacteria) are performed.” left out\nas §2"}, "P. aeruginosa": {"test_system": "P. aeruginosa", "conditions": "Ordonez et al. 2017; cited from earlier work"}, "bacteria [6]": {"test_system": "bacteria", "conditions": "gram negative and gram positive; Ordonez et al. 2017; cited from earlier work"}, "J774 macrophages [7]": {"test_system": "J774 macrophages", "conditions": "Ordonez et al. 2017; cited from earlier work"}}, "note": "Entries after “also recorded” stand apart in the source; their conditions may differ. Where two headings read alike, the source gives them in different places.", "data": [{"smiles": "C[C@H](O)[C@H](O)[C@@H](O)[C@@H]([18F])C=O", "note": "[^18F-L-rhamnose, 2-deoxy-2-[^18F]fluororhamnose]", "values": [{"measurement": "PET/CT uptake (SUV) in lungs of infected mice", "setting": "[1]; FIG. 3A", "result": "slight higher uptake in lung lesions compared to controls and poly (I:C) treated mice"}, {"measurement": "PET/CT uptake (SUV) in lungs of infected mice", "setting": "[1]; FIG. 3A, listed as [^18F]-rhamnose", "result": "Increased uptake is seen in the lungs of nasopharyngeally-infected pulmonary IA (AF NP) mice"}, {"measurement": "PET uptake in lungs of control or sterile lung inflammation mice", "setting": "[1]; control and poly (I:C) mice, averaged 520-3520 seconds post injection, FIG. 3A", "result": "no appreciable uptake is seen in the lungs of control or sterile lung (poly (I:C)inflammation mice"}, {"measurement": "washout of the ligand (time activity curve)", "setting": "[1]; mouse, in vivo", "result": "relatively fast washout"}, {"measurement": "in vitro uptake of ^18F-L-rhamnose by A. fumigatus", "setting": "A. fumigatus; live versus heat-killed cultures, FIG. 1E", "result": "specifically internalized by live A. fumigatus cultures when compared to heat-killed cultures"}]}, {"smiles": "C[C@H](O)[C@H](O)[C@@H](O)[C@@H](O)C=O", "note": "[^3H-L-Rhamnose]", "values": [{"measurement": "autoradiography: uptake in lungs of infected mice", "setting": "[2]", "result": "accumulation of ^3H-L-Rhamnose in the lungs of infected but not uninfected animals"}, {"measurement": "biodistribution: uptake in lungs of infected versus control mice", "setting": "[3]", "result": "uptake of ^3H-L-Rhamnose in the lungs of infected animals but not in uninfected controls; also recorded: increased uptake in the lungs of infected compared to control mice and mice with sterile lung inflammation"}, {"measurement": "in vitro retention of 3H-L-Rhamnose by bacteria", "setting": "bacteria [4]", "result": "minimal retention"}, {"measurement": "in vitro retention/uptake of 3H-labeled sugar by A. fumigatus", "setting": "A. fumigatus; retained radioactivity after incubation and washing, beta counter, FIG. 1A, FIG. 4A", "result": "significant retention"}, {"measurement": "in vitro retention/uptake of 3H-labeled sugar by macrophages (mammalian cells)", "setting": "J774 macrophages [5]", "result": "minimal retention"}]}, {"smiles": "C[C@H](O)[C@H](O)[C@@H](O)[C@@H](O)C=O", "note": "[L-Rhamnose]", "values": [{"measurement": "L-Rhamnose uptake in P. aeruginosa", "setting": "P. aeruginosa", "result": "very low"}, {"measurement": "L-Rhamnose uptake in bacteria", "setting": "bacteria [6]", "result": "low"}, {"measurement": "L-Rhamnose uptake in macrophages", "setting": "J774 macrophages [7]", "result": "very low"}]}]}
